{
  "source": "paper PMC11859264",
  "about": "“Discovery of a Novel Multitarget Analgesic Through an In Vivo-Guided Approach” (Pharmaceuticals, 2025)",
  "key": {"[1]": {"biological_target": "T1, Transporter, Norepinephrine (NET) (Homo sapiens, UniProt P23975)", "T1 construct": "host or cells: MDCK cells", "T1 sequence (P23975 whole entry)": "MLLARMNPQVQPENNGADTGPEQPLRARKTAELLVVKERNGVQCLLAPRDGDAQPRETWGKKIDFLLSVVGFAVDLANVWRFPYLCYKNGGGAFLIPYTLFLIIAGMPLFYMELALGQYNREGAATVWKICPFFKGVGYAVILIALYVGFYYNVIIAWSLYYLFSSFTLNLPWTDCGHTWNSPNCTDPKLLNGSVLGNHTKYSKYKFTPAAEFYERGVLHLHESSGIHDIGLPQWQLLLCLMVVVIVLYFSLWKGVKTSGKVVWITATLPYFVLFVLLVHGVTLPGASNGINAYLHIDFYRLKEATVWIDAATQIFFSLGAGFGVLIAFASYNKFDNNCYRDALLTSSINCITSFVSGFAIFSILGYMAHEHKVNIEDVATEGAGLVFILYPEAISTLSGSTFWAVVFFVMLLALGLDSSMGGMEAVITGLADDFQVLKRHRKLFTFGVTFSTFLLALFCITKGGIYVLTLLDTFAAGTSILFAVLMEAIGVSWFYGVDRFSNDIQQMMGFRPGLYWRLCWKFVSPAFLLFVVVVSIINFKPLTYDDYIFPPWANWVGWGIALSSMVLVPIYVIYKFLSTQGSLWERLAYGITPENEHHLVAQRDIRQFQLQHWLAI", "test": "Radioligand binding, [125I] RTI-55, Eurofins"}, "Adrenergic α2A": {"biological_target": "T2, Adrenergic α2A (Homo sapiens, UniProt P08913)", "T2 sequence (P08913 1-465)": "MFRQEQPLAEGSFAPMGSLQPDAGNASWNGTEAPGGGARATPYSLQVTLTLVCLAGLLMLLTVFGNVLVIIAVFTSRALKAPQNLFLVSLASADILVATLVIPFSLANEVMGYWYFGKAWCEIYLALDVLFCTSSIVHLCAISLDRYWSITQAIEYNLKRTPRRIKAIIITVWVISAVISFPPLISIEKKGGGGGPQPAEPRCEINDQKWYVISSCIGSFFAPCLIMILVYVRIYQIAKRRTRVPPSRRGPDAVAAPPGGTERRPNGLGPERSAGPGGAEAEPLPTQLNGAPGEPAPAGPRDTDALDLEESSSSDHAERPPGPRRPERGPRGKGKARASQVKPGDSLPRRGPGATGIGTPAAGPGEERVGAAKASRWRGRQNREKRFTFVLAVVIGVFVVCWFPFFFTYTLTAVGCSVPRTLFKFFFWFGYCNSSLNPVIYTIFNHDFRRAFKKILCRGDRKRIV", "test": "Radioligand binding, [3H] Rauwolscine, Eurofins"}, "[2]": {"test": "In vivo pharmacokinetic study", "parameters": "species or system Sprague–Dawley rats", "conditions": "rats; for AUC(0-inf) / AUC(0-t) / CL/F / Cmax / Tmax / half-life: male, Sprague-Dawley, rat, plasma", "procedure": "The in vivo pharmacokinetics parameters of compound 29 were measured in rats over 24 h following intraperitoneal (IP) and oral (PO) administration (Figure 4). These experiments were conducted to evaluate the compound’s absorption, distribution, metabolism, and excretion profiles under different routes of administration. Male Sprague–Dawley rats (n = 3 per group, weight 200–250 g) were fasted overnight but had free access to water. All animal experiments were conducted in accordance with institutional guidelines. For intraperitoneal (IP) administration, compound 29 was dissolved in saline and DMSO, while for oral (PO) administration, the compound was suspended in 0.5% carboxymethyl cellulose (CMC). All solutions were freshly prepared and filtered before administration to ensure homogeneity. Compound 29 was administered at 5 mg/kg via intraperitoneal injection or at 10 mg/kg by oral gavage. […] Blood was collected into EDTA-coated tubes and centrifuged at 2000× g for 10 min at 4 °C to separate plasma. Plasma samples were stored at −80 °C until analysis. Before analysis, plasma samples were thawed on ice, and proteins were precipitated using acetonitrile containing an internal standard. The mixture was centrifuged, and the supernatant was collected for analysis. Plasma concentrations of compound 29 were determined using a validated LC-MS/MS method. […] Quantification was performed in Multiple Reaction Monitoring (MRM) mode using Xcalibur software (version 4.4). Pharmacokinetic parameters, including AUClast, AUCinf, Cmax, Tmax, t1/2, Cl/F, and Vd, were calculated using non-compartmental analysis (NCA) with Phoenix WinNonlin software 8.5.2 (Certara, Radnor, PA, USA)."}, "Cytotoxicity assay (MTT)": {"test": "Cytotoxicity assay (MTT)", "type": "cell-based", "conditions": "mouse, HT-22 hippocampal neuronal cells, HT-22 cells, read-out: cell viability relative to the untreated control group", "procedure": "In the in vitro toxicity study, we initially evaluated the cytotoxic potential of compound 29 using a hippocampal neuronal cell line (HT-22), a commonly used model for assessing neurotoxicity. Cell viability was determined after exposure to compound 29 at a concentration of 10 μM.\nHT-22 (mouse hippocampal cells) were cultured in Dulbecco’s Modified Eagle’s Medium (DMEM, GIBCO) supplemented with 10% (v/v) fetal bovine serum and antibiotics (100 µg/mL penicillin/streptomycin mix) in a humidified atmosphere at 37 °C with 5% CO2. A total of 5000 HT-22 cells per well were seeded into a clear 96-well plate one day prior to the assay. On the day of the experiment, the medium was removed, and the cells were treated with 25 µL of each compound at a concentration of 10 µM. The plates were incubated at 37 °C for 18 h. Subsequently, 15 µL of 3-[4,5-dimethylthiazol-2-yl]-2,5-diphenyltetrazolium bromide (MTT) solution (5 mg/mL) was added to each well, and the plates were incubated for an additional 3 h. The resulting formazan crystals were dissolved in dimethyl sulfoxide (DMSO), and the absorbance at 570 nm was measured using a microplate reader (Sunrise, TECAN). Optical density (OD) values from each well were normalized by subtracting the vehicle control, and cell viability was calculated by considering the signal from the vehicle control as 100%."}, "[3]": {"system": "panel of 47 drug target molecules", "test": "Screening against a panel of pain-related drug targets at 10 μM", "type": "binding", "procedure": "To elucidate the mechanism of action of compound 29 in producing analgesic effects, its inhibitory effects were systematically evaluated through a screening process. The compound was tested at a concentration of 10 μM against a diverse panel of 47 drug target molecules that are closely associated with pain modulation pathways.\nThe screening of pain-related receptors for the mechanism of action study of compound 29 was conducted by outsourcing the experiment to Eurofins (https://www.eurofins.com, accessed on 30 July 2024). Methods employed in this study have been adapted from the scientific literature to maximize reliability and reproducibility. Reference standards were run as an integral part of each assay to ensure the validity of the results obtained. […] Where presented, IC50 values were determined by a non-linear, least squares regression analysis using MathIQTM (ID Business Solutions Ltd., Woking, Surrey, UK). Where inhibition constants (Ki) are presented, the Ki values were calculated using the equation of Cheng and Prusoff using the observed IC50 of the tested compound, the concentration of radioligand (*) employed in the assay, and the historical values for the KD of the ligand (obtained experimentally at Eurofins Panlabs, Inc.). Where presented, the Hill coefficient (nH), defining the slope of the competitive binding curve, was calculated using MathIQTM."}, "hERG": {"biological_target": "hERG (Homo sapiens, UniProt Q12809)", "sequence (Q12809 whole entry)": "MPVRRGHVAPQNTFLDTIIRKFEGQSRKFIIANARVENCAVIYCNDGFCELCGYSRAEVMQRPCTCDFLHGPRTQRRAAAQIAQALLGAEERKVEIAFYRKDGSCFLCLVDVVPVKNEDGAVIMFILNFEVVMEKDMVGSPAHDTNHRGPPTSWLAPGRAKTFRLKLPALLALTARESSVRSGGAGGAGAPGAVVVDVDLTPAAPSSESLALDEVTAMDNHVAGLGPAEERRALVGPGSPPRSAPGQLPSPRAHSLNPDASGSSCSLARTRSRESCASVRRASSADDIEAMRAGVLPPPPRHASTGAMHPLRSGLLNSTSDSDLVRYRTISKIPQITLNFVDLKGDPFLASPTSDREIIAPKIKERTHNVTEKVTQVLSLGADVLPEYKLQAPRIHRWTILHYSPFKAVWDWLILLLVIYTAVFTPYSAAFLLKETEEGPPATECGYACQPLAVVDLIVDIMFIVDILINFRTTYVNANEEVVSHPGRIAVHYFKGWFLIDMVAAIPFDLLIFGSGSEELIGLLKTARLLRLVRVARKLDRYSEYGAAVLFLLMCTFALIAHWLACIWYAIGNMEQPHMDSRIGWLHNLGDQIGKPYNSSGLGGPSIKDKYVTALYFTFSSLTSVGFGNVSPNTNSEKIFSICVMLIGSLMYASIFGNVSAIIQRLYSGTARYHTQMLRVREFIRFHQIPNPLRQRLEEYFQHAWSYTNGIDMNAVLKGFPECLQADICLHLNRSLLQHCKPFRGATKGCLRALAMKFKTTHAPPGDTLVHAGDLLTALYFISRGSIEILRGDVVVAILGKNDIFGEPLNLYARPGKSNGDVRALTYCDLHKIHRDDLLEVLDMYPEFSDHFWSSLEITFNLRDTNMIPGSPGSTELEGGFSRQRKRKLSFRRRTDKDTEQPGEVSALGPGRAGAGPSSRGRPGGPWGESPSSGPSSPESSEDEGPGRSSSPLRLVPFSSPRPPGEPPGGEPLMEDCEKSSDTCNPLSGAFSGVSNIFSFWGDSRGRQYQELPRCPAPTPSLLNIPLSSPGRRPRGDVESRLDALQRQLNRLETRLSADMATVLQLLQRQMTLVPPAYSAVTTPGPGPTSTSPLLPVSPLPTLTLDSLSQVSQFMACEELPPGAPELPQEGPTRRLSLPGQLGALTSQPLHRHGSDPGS", "test": "in vitro"}, "CYP2C9": {"biological_target": "CYP2C9 (Homo sapiens, UniProt P11712)", "sequence (P11712 whole entry)": "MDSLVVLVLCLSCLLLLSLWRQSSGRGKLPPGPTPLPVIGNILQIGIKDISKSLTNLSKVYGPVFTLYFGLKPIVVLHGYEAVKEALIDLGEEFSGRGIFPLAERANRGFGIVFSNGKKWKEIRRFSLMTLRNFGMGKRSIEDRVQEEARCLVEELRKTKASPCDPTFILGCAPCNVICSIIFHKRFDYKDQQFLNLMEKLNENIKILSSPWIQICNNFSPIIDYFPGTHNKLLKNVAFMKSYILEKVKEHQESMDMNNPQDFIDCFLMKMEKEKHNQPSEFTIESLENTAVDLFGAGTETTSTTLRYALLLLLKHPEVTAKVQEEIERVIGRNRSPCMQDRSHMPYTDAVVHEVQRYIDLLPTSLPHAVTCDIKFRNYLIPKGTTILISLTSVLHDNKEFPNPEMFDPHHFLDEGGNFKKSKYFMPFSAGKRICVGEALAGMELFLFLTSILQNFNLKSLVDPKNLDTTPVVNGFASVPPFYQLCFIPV", "test": "in vitro", "conditions": "microsomes, pH 7.4, CYP2C9 % of inhibition"}, "CYP2C19": {"biological_target": "CYP2C19 (Homo sapiens, UniProt P33261)", "sequence (P33261 whole entry)": "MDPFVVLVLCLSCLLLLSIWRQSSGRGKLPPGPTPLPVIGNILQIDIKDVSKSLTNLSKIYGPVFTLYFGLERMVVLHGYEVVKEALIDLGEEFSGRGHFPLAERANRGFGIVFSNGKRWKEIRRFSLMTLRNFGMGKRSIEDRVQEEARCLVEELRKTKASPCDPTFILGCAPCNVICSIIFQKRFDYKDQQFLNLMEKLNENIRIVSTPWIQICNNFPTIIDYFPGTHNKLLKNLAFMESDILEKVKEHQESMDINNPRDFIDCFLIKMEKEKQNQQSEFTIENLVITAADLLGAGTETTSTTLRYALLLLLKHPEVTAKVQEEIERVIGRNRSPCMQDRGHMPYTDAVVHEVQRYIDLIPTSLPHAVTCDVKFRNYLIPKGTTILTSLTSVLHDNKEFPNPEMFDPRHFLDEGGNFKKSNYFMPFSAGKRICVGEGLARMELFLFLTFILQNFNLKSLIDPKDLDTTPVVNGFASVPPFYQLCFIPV", "test": "in vitro", "conditions": "microsomes, pH 7.4, CYP2C19 % of inhibition"}},
  "data": [
    {"smiles": "N#Cc1ccc2[nH]cc(C(=O)NCCN3CCN(c4ccc5ccccc5n4)CC3)c2c1", "note": "[Compound 29, 5-Cyano-N-(2-(4-(quinolin-2-yl)piperazin-1-yl)ethyl)-1H-indole-3-carboxamide]", "values": [
      {"measurement": "nH (Hill coefficient)", "setting": "[1]; NET", "result": 0.73},
      {"measurement": "Ki", "setting": "[1]; NET, Cheng and Prusoff", "result": 0.38, "unit": "µM"},
      {"measurement": "IC50", "setting": "[1]; NET, human recombinant MDCK cells", "result": 0.38, "unit": "µM"},
      {"measurement": "times more potent at NET compared to desipramine", "setting": "[1]; ratio of Ki values", "result": 3},
      {"measurement": "nH (Hill coefficient)", "setting": "Adrenergic α2A; Adrenergic α2A", "result": 1.02},
      {"measurement": "Ki", "setting": "Adrenergic α2A; Adrenergic α2A, Cheng and Prusoff", "result": 4.11, "unit": "µM"},
      {"measurement": "IC50", "setting": "Adrenergic α2A; Adrenergic α2A, human recombinant CHO-Ki cells", "result": 8.22, "unit": "µM"},
      {"measurement": "times the activity of reference compound yohimbine", "setting": "Adrenergic α2A; ratio of Ki values", "result": 0.25},
      {"measurement": "AUC(0-inf)", "setting": "[2]; IP, 5 mg/kg", "result": 1380, "unit": "ng·h/mL"},
      {"measurement": "AUC(0-t)", "setting": "[2]; IP, 5 mg/kg", "result": 1030, "unit": "ng·h/mL"},
      {"measurement": "CL/F", "setting": "[2]; IP, 5 mg/kg", "result": 64.7, "unit": "mL/min/kg"},
      {"measurement": "Cmax", "setting": "[2]; IP, 5 mg/kg", "result": 208, "unit": "ng/mL"},
      {"measurement": "Tmax", "setting": "[2]; IP, 5 mg/kg", "result": 2.83, "unit": "h"},
      {"measurement": "half-life", "setting": "[2]; IP, 5 mg/kg", "result": 3.49, "unit": "h"},
      {"measurement": "AUC(0-inf)", "setting": "[2]; PO, 10 mg/kg", "result": 430, "unit": "ng·h/mL"},
      {"measurement": "AUC(0-t)", "setting": "[2]; PO, 10 mg/kg", "result": 407, "unit": "ng·h/mL"},
      {"measurement": "CL/F", "setting": "[2]; PO, 10 mg/kg", "result": 401, "unit": "mL/min/kg"},
      {"measurement": "Cmax", "setting": "[2]; PO, 10 mg/kg", "result": 113, "unit": "ng/mL"},
      {"measurement": "Tmax", "setting": "[2]; PO, 10 mg/kg", "result": 1.5, "unit": "h"},
      {"measurement": "half-life", "setting": "[2]; PO, 10 mg/kg", "result": 1.67, "unit": "h"},
      {"measurement": "Vd", "setting": "[2]; IP, 5 mg/kg", "result": 17.9, "unit": "L/kg"},
      {"measurement": "Vd", "setting": "[2]; PO, 10 mg/kg", "result": 57.4, "unit": "L/kg"},
      {"measurement": "viability at 18 h, 10 µM", "setting": "Cytotoxicity assay (MTT)", "result": "> 100", "unit": "%"},
      {"measurement": "number of targets with more than 50% inhibition", "setting": "[3]", "result": 16},
      {"measurement": "inhibition at 4 h, 10 µM", "setting": "hERG", "result": 52.7, "unit": "%"},
      {"measurement": "inhibition at 15 min, 10 µM", "setting": "CYP2C9", "result": "< 50", "unit": "%"},
      {"measurement": "inhibition at 15 min, 10 µM", "setting": "CYP2C19", "result": "< 50", "unit": "%"}
    ]}
  ]
}
